Assay results published in PubChem BioAssay AID1745864.

Molecular target: Excitatory amino acid transporter 1 (Homo sapiens) (UniProt P43003)
Assay: SLC1A3 amino acid substrate potency, dose response, HEK293 JumpIn overexpressing cells, membrane potential dye (AID 1745864)
Settings: HEK293 JumpIn SLC1A3 OE, FLIPR membrane potential

Excitatory amino acid transporter 1 (Homo sapiens), sequence (P43003 whole entry, looked up): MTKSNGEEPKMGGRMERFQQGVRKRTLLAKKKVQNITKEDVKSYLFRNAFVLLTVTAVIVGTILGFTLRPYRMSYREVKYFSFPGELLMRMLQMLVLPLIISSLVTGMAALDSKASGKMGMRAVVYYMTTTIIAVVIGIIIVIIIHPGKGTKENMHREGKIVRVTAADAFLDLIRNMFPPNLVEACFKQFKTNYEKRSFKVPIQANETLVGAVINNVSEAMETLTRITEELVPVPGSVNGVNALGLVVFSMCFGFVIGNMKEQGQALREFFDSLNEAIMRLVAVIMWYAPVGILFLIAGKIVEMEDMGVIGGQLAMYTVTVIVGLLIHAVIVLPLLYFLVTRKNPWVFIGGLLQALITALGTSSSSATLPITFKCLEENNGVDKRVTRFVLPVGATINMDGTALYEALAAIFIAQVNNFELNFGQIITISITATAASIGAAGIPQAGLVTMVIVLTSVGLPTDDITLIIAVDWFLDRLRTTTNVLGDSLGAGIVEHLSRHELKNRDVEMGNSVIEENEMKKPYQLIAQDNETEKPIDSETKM

EC50: 376 µM
SMILES: N[C@@H](CS)C(=O)O
